Changes are numbered by the printed parent chain.
How the values were obtained:
Type in all cases: binding
[1] = target: T1, HsCRY1 (Homo sapiens, UniProt Q16526); assay: UV-visible absorption titration of apo-protein into constant FAD, global fit
T1 construct: gene CRY1; full length 1-586, 39-aa N-terminal 6xHis extension (pRSET-A), E. coli SoluBL21, apo-protein
T1 sequence (Q16526 1-586): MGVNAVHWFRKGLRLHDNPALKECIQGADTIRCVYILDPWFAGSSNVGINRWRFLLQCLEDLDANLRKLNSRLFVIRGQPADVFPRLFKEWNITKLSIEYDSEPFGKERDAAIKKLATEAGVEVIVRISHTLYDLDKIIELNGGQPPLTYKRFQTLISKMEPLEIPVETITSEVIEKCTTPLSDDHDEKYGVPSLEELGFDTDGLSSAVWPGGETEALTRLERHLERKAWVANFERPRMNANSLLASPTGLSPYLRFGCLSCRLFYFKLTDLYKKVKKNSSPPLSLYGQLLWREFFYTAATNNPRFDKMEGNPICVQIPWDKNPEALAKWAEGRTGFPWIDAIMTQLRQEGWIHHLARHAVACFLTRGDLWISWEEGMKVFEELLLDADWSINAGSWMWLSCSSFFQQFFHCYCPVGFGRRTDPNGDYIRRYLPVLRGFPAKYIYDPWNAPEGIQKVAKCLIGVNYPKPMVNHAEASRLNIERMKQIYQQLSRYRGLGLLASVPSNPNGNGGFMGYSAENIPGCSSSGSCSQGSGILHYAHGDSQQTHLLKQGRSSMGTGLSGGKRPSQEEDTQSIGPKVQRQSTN

[2] = target: T2, HsCRY2 (Homo sapiens, UniProt Q49AN0, H243R/S415N); assay: UV-visible absorption after incubation in excess FAD and spin filtration; conditions: occupancy after incubation in excess FAD and removal of free FAD
T2 construct: gene CRY2; full length 1-593, 39-aa N-terminal 6xHis extension (pRSET-A), E. coli SoluBL21, apo-protein
T2 sequence (Q49AN0 1-593 H243R/S415N): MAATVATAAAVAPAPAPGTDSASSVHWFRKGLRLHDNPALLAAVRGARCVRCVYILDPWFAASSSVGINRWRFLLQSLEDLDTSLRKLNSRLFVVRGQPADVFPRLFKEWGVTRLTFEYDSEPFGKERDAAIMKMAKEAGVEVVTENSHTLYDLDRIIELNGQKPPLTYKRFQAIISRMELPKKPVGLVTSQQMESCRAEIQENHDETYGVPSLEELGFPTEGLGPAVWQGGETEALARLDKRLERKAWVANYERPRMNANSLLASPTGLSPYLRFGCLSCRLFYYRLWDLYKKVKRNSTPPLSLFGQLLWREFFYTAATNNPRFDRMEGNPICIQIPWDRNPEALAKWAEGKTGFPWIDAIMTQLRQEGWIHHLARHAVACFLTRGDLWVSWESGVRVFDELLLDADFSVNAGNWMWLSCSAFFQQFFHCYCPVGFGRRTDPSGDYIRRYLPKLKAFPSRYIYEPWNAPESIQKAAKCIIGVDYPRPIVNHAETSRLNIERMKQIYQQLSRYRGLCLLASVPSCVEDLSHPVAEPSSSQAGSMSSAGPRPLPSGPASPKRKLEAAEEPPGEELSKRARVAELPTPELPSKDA

[3] = target: T3, SbCRY1a (Sylvia borin, UniProt Q6ZZY0); assay: UV-visible absorption titration of apo-protein into constant FAD, global fit
T3 construct: gene CRY1; full length 1-620, 36-aa N-terminal 6xHis extension (pRSET-A), E. coli SoluBL21, apo-protein
T3 sequence (Q6ZZY0 1-620): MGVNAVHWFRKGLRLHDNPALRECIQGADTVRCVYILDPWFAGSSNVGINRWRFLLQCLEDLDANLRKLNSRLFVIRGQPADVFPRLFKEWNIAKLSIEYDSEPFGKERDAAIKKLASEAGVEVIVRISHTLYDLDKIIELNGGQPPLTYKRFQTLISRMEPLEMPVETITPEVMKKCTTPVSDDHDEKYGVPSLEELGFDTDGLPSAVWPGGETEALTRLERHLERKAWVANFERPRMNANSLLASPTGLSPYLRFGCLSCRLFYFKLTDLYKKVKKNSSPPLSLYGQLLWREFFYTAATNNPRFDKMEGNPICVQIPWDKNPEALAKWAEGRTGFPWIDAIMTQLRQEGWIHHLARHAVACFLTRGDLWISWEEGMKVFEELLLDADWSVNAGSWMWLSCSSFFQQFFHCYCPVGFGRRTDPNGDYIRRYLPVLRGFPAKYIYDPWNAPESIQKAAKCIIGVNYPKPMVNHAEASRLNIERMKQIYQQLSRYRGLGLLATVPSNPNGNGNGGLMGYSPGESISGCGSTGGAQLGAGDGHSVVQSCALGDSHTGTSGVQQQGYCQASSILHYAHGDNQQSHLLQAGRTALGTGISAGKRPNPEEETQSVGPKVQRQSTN

[4] = target: T4, DmCRY (Drosophila melanogaster, UniProt O77059); assay: UV-visible absorption and visible CD of purified protein; conditions: co-purified oxidized FAD; near-stoichiometric
T4 construct: gene cry

[5] = target: T5, DmCRY (Drosophila melanogaster, UniProt O77059, R237H); assay: UV-visible absorption of purified protein ([…] nm), FAD occupancy; conditions: co-purified FAD
T5 construct: gene cry

[6] = target: T6, DmCRY (Drosophila melanogaster, UniProt O77059, R298E); assay: as above; conditions: co-purified FAD
T6 construct: gene cry

[7] = target: T7, DmCRY (Drosophila melanogaster, UniProt O77059, N419S); assay: as above; conditions: co-purified FAD
T7 construct: gene cry

[8] = target: T8, HsCRY2 (Homo sapiens, UniProt Q49AN0); assay: UV-visible absorption titration of apo-protein into constant FAD, global fit
T8 construct: gene CRY2; full length 1-593, 39-aa N-terminal 6xHis extension (pRSET-A), E. coli SoluBL21, apo-protein
T8 sequence (Q49AN0 1-593): T2 sequence (Q49AN0 1-593 H243R/S415N) with R243H, N415S

[9] = target: T9, DmCRY (Drosophila melanogaster, UniProt O77059, Q311E); assay: UV-visible absorption of purified protein ([…] nm), FAD occupancy; conditions: co-purified FAD
T9 construct: gene cry

[10] = target: T10, DmCRY (Drosophila melanogaster, UniProt O77059, R237E/R298E); assay: as above; conditions: co-purified FAD
T10 construct: gene cry

[11] = target: T11, DmCRY (Drosophila melanogaster, UniProt O77059, R298E/Q311E); assay: as above; conditions: co-purified FAD
T11 construct: gene cry

[12] = target: T12, DmCRY (Drosophila melanogaster, UniProt O77059, R237E); assay: as above; conditions: co-purified FAD
T12 construct: gene cry
T12 sequence (O77059 1-539 R237E): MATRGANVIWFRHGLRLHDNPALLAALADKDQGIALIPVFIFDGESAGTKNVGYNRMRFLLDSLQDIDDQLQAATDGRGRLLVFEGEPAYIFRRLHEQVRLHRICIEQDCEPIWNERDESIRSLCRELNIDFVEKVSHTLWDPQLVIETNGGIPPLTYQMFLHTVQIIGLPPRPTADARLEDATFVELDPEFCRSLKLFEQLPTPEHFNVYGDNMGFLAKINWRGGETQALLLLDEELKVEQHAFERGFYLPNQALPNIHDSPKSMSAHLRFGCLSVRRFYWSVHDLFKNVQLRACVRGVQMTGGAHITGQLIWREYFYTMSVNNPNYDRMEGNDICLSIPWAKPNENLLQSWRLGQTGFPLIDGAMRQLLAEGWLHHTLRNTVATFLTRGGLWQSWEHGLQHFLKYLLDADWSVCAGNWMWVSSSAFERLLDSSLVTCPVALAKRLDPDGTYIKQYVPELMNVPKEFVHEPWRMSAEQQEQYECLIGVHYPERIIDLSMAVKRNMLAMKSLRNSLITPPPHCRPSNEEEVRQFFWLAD

T7 sequence (O77059 1-539 N419S): as the sequence (O77059 1-539 R237E) above, with E237R, N419S counted along it
T9 sequence (O77059 1-539 Q311E): as the sequence (O77059 1-539 R237E) above, with E237R, Q311E counted along it
T11 sequence (O77059 1-539 R298E/Q311E): as the sequence (O77059 1-539 R237E) above, with E237R, R298E, Q311E counted along it
T10 sequence (O77059 1-539 R237E/R298E): as the sequence (O77059 1-539 R237E) above, with R298E counted along it
T6 sequence (O77059 1-539 R298E): as the sequence (O77059 1-539 R237E) above, with E237R, R298E counted along it
T4 sequence (O77059 1-539): as the sequence (O77059 1-539 R237E) above, with E237R counted along it
T5 sequence (O77059 1-539 R237H): as the sequence (O77059 1-539 R237E) above, with E237H counted along it

Kd [1]: 16 µM
% bound FAD [2]: ~ 30%
Kd [3]: 97 µM
Kd [8]: 68 µM
% reduction of FAD occupancy [10]: ~ 16%
% reduction of FAD occupancy [11]: ~ 58%
% reduction of FAD occupancy [12]: ~ 12%
Structure (SMILES): Cc1cc2nc3c(=O)[nH]c(=O)nc-3n(C[C@H](O)[C@H](O)[C@H](O)COP(=O)(O)OP(=O)(O)OC[C@H]3O[C@@H](n4cnc5c(N)ncnc54)[C@H](O)[C@@H]3O)c2cc1C [FAD]
UV-visible absorption and visible CD of purified protein [4]: UV-visible absorption spectrum of DmCRY shows near-stoichiometric binding of oxidized FAD
FAD occupancy [5]: single point mutations only had a minimal impact on FAD occupancy
FAD occupancy [6]: single point mutations only had a minimal impact on FAD occupancy
FAD occupancy [7]: single point mutations only had a minimal impact on FAD occupancy
FAD occupancy [9]: single point mutations only had a minimal impact on FAD occupancy
